Measured values taken from patent US20060147934A1, “High speed assay for glycosyl transferases” (priority 2003, published 2006).
Where two headings read alike, the source gives them in different places.

Assays:
[1] = test system: MraY/MurG couple; test: Coupled assay of MraY and MurG using HP20ss beads; assay type: biochemical, E. coli; settings: titration of the MraY/MurG couple, 0.5 mg/mL protein at 10 min time (FIG. 5, Panel B)
Method: The MraY/MurG coupled assay reaction procedure was identical to that described above for the assay of MraY. However, quantitation of the coupled system was performed by monitoring the incorporation of radiolabeled MurG co-substrate UDP-N-[1-^14C]acetyl-glucosamine into the lipophilic product Lipid II. Accordingly, this assay mixture was modified to contain 100 mM Tris, pH 7.5, 30 mM MgCl2, 0.15% Triton X-100, 40 μM decaprenol phosphate, 100 μM UDP-MurNAc-pentapeptide, 100 ug/ml phosphatidyl glycerol, and 20 μM, 0.1 μCi UDP-N-[1-^14C]acetyl-glucosamine and typically 0.5 mg/mL of E. coli cell membranes in a final volume of 50 μL. All other procedures, times and temperatures were identical to those described for the MraY assay.

[2] = molecular target: T1, MraY (Escherichia coli, UniProt P0A6W3); test: Assay of MraY using HP20ss hydrophobic beads; assay type: biochemical, E. coli
T1 construct: MraY activity measured in membranes prepared from wild-type E. coli; endogenous in cells
T1 sequence (P0A6W3 1-360): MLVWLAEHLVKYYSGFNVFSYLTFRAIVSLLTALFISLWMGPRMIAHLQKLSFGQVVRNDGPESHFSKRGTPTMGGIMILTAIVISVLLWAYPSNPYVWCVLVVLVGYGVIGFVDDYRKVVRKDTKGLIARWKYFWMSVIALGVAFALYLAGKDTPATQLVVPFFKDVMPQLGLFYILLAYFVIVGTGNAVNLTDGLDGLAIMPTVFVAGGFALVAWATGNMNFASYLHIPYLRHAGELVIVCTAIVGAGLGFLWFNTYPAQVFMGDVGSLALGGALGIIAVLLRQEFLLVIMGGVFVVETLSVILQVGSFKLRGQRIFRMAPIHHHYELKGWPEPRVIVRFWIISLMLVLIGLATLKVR
Method: The reaction catalyzed transfer and use of the radiotracer are shown in FIG. 2, Panel A. The general course of manipulations are diagramed in FIG. 2, Panel D and described in the text. The reaction mixture for the MraY assay included 100 mM Tris, pH 7.5, 30 mM MgCl2, 0.15% Triton X-100, 100 μg/ml Phosphatidyl Glycerol, 40 μM decaprenol phosphate, 14 μM UDP-MurNAC-[^14C]pentapeptide (prepared as described above) and typically 0.5 mg/mL of E. coli cell membranes in a final volume of 50 μL. The phosphatidyl glycerol and decaprenol phosphate, which are supplied in organic solvent, were dried in the reaction tube before the addition of the other components.
The HP20ss resin used to isolate the Lipid I product from the above reaction mixture was equilibrated before use. Briefly, the dry resin was mixed thoroughly with excess methanol in a beaker and allowed to settle for 45 min. […]
For assays whereby the reaction is analyzed at various times, a larger reaction volume was prepared (50 μL is typically appropriate for each time point). […] The filterplate was then quantitated by liquid scintillation spectrometry with a TOPCOUNT (PERKIN ELMER LIFE SCIENCES, Downers Grove, Ill.) using 200 μL of scintillation cocktail (MICROSCINT 40, PERKIN ELMER LIFE SCIENCES, Downers Grove, Ill.) per well.

Row | Substance | IC50 [1] | IC50 ([1]; listed as ramoplainin) [µg/mL] | IC50 ([2]; membranes from wild-type E. coli, bead format (text to FIG. 5, Panel A)) | IC50 ([2]; titration of the MraY assay, 0.5 mg/mL protein at 10 min time (FIG. 5, Panel A), read-out: IC50) [nM]
1 | ramoplanin | approximately 17 μg/mL | 17 |  | 
2 | tunicamycin |  |  | approximately 1 μg/mL | 1100
